Counter-ions that a name gives are not always drawn.
Assays:
Format in all cases: physicochemical
[1] = Storage stability under humidity/temperature conditions; conditions: for stability under regular conditions: 60% RH at RT; for stability under regular conditions / stability under accelerated conditions: for at least one month; for stability under accelerated conditions: 75% RH at 40° C.; for stability up to 80% RH: up to 80% RH at RT, for at least one week
[2] = Stability under stress conditions (heating, grinding, high pressure); conditions: for stability under stress conditions: heating, grinding and high pressure
[3] = Hygroscopicity

Molecule	stability under regular conditions [1]	stability under accelerated conditions [1]	stability under stress conditions [2]	hygroscopicity [3]	stability up to 80% RH [1]	stability under grinding ([2]; grinding)
O=C(c1ccc(NS(=O)(=O)c2cccc3cccnc23)cc1)N1CCN(CC2CC2)CC1 [Form I of Mitapivat HCl, Mitapivat HCl]	stable	stable	stable	non-hygroscopic	–	–
O=C(c1ccc(NS(=O)(=O)c2cccc3cccnc23)cc1)N1CCN(CC2CC2)CC1 [Form III of Mitapivat HCl, Mitapivat HCl]	–	–	–	–	stable	–
Mitapivat hemisulfate:ascorbic acid	polymorphically and chemically stable	polymorphically and chemically stable	stable	non-hygroscopic	–	–
Mitapivat phosphate [Form P1 of Mitapivat phosphate]	–	–	–	non-hygroscopic	stable	stable

Reference: patent publication US12286404B2, “Solid state forms of Mitapivat and process for preparation thereof” (TEVA PHARMACEUTICALS INTERNATIONAL GMBH, priority 2020, dated 2025)
